Test results taken from patent US20040157799A1, “Pharmaceutical uses of bisphosphonates” (priority 2004, published 2004).

Legend:
[1] = tested on: prostate cancer patients with a history of metastatic bone disease; test: double-blind, placebo-controlled clinical study of zoledronic acid: skeletal-related events; assay type: in vivo, human; details: for patients with at least one skeletal-related event: i.v. every 3 weeks, placebo 44.2% (N=208); for patients with pathologic fractures: placebo 22.1%; for median time to the first skeletal-related event: placebo 320 days
Source text: Skeletal-related events (SREs) are defined as pathologic bone fracture events, spinal cord compression events, surgery to bone, radiation therapy to bone (including the use of radioisotopes) and a change of antineoplastic therapy to treat bone pain. Thus, SREs are the primary end-points in this study. The key efficacy endpoints are the proportion of patients having at least one SRE and the time to first SRE.
Secondary objectives are to assess the effect of zoledronic acid therapy on pain scores, analgesic use, performance status, Quality of Life scores, time to termination of active study participation, and to assess the safety and tolerability of zoledronate. Changes in bone resorption and formation markers are also evaluated. Bone mineral density measurements are evaluated in patients at selected clinical centers. In addition, time to progression of disease in bone and time to overall progression of disease are evaluated.
This study is an international, multicenter, randomized, double-blind, placebo-controlled, parallel study. […] The rising serum PSA level is documented by three consecutively rising serum PSA measurements (i.e., the third PSA level is to be>the second PSA level which is >the first PSA level which is >the nadir serum PSA concentration achieved during first-line hormonal therapy for metastatic prostate cancer), each separated from the other by at least two weeks. The rising serum PSA level represents an “early” event in the development of progressive metastatic disease.
Patients are randomized in a double-blind fashion to receive either zoledronate 4 mg intravenously, or zoledronate 8 mg intravenously, or a placebo intravenous infusion every three weeks in addition to their antineoplastic therapy. The randomized treatment assignment ratio is to be 1:1:1. In addition, all patients are to receive 500 mg of calcium orally and a multivitamin tablet (containing 400-500 I.U. of vitamin D) daily throughout the study.
The occurrence of skeletal-related events (SRE's) is collected throughout the trial for each patient in order to determine the proportion of patients experiencing at least one SRE, the time to the first SRE, and the skeletal morbidity rate (see section 4). Time to progression of disease in bone is assessed centrally (central radiologist) by review of serial bone radiographic studies. Time to overall progression of disease is determined by the patient's treating physician: by evaluating the central assessments (central radiologist) of serial bone radiographic studies; by evaluating the central assessments (central radiologist) of appropriate serial radiographic studies of non-skeletal tumor sites, if present; by evaluating serial serum PSA levels; and by evaluating serial patient weight measurements. Quality of Life, performance status, health care utilization and productivity loss data, and pain, and analgesic use scores are determined serially throughout the study. This information is also collected for those patients who discontinue active therapy within 24 months from the date of randomization into the study. Information about adverse events which occur during the patient's clinical course is collected throughout the study.
The study is made up of two phases, phase 1, the Efficacy and Safety Phase, and phase 2, the Extension Phase. The primary efficacy analysis is performed at the completion of phase 1, the Efficacy and Safety Phase, which consists of 60 weeks (20 cycles) of study treatment. Phase 2 consists of an additional 36 weeks (12 cycles) of study therapy. The primary purpose of phase 2 is to obtain long-term zoledronate treatment safety and survival data, however efficacy data will continue to be collected. […] No interim analyses are planned. […]

[2] = tested on: prostate cancer cell lines; details: in vitro treatment (Brown et al.; Lee et al.); cited from earlier work
[3] = tested on: subcutaneous prostate cancer cell line tumours; details: subcutaneous prostate cancer cell line tumours (Corey et al.); cited from earlier work

Compound: O=P(O)(O)C(O)(Cn1ccnc1)P(=O)(O)O [zoledronic acid, 2-(imidazol-1yl)-1-hydroxyethane-1,1-diphosphonic acid]
- effect on skeletal-related events ([1]; 4 mg 15-minute infusions every 3 weeks, metastatic prostate cancer refractory to hormonal therapy): significantly reduce skeletal-related events
- tolerability ([1]; 4 mg given as a 15-minute infusion): well-tolerated
- efficacy in the treatment of bone metastases vs. placebo ([1]; prostate cancer patients, double blind, placebo-controlled): statistically significant efficacy benefit over placebo
- patients with at least one skeletal-related event ([1]; zoledronic acid 4 mg group (N=214), p=0.021 vs. placebo): 33.2%
- patients with pathologic fractures ([1]; zoledronic acid 4 mg group, p=0.015 vs. placebo): 13.1%
- median time to the first skeletal-related event ([1]; zoledronic acid 4 mg group, p=0.011 vs. placebo): not reached
- patients with at least one skeletal-related event ([1]; zoledronic acid 8/4 mg group (N=221), p=0.222 vs. placebo): 38.5%
- patients with pathologic fractures ([1]; zoledronic acid 8/4 mg group, p=0.054 vs. placebo): 14.9%
- median time to the first skeletal-related event ([1]; zoledronic acid 8/4 mg group, p=0.491 vs. placebo): 363 days
- growth of prostate cancer cell lines [2]: significantly reduced the growth of the cell lines
- tumour volume [3]: no significant decrease in tumour volume
